Test results reported in PMC9732823, “Discovery of Dual Aβ/Tau Inhibitors and Evaluation of Their Therapeutic Effect on a Drosophila Model of Alzheimer’s Disease” (ACS Chemical Neuroscience, 2022).

Legend:
Aβ42 = target: T1, Aβ42 (Homo sapiens, UniProt P05067); test: Inhibition of Aβ42 aggregation in intact E. coli cells overexpressing Aβ42 (ThS fluorescence); type: cell-based, Escherichia coli; conditions: read-out: % inhibition Aβ42 aggregation @ 10 μM, intact E. coli cells, compound 10 μM, mean ± SEM of four independent experiments
T1 construct: expressed in transfected cells; host or cells: Escherichia coli BL21 (DE3), pET28a
Excerpt: (§1) As it would have been labor-intensive and expensive to screen such a number of compounds in two separate antiaggregating studies using recombinant Aβ and Tau, we turned our attention to a simple model of protein aggregation, namely, the intact Escherichia coli (E. coli) cells overexpressing Aβ42 and Tau proteins.[28],[29] Building on the fact that inclusion bodies produced by overexpression of these proteins in E. coli mainly consist of fibrillar aggregates, this simple screening method uses bacteria as an in vivo reservoir for tracking the inhibition of amyloid-type protein aggregation in real time, using the amyloid dye thioflavin S (ThS). Of note, this screening has already been used for the evaluation of libraries of antiaggregating compounds.[28]−[38]
Escherichia coli competent cells BL21 (DE3) were transformed with the pET28a vector (Novagen, Inc., Madison, WI) carrying the DNA sequence of Aβ42. Because of the addition of the initiation codon ATG in front of both genes, the overexpressed peptide contains an additional methionine residue at its N terminus. For overnight culture preparation, an amount of 10 mL of M9 minimal medium containing 50 μg·mL^–1 kanamycin was inoculated with a colony of BL21 (DE3) bearing the plasmid to be expressed at 37 °C. For expression of the Aβ42 peptide, the required volume of overnight culture to obtain 1:500 dilution was added into fresh M9 minimal medium containing 50 μg·mL^–1 kanamycin and 250 μM ThS. The bacterial culture was grown at 37 °C and 250 rpm. When the cell density reached ABS600 nm = 0.6, an amount of 980 μL of culture was transferred into Eppendorf tubes of 1.5 mL with 10 μL of each compound to be tested in DMSO and 10 μL of isopropyl 1-thio-β-D-galactopyranoside (IPTG) at 100 mM. The final concentration of the drug was fixed at 10 μM. The samples were grown overnight at 37 °C and 1400 rpm using a thermomixer (Eppendorf, Hamburg, Germany). As the control of the amyloid presence (maximal amyloid presence), the same amount of DMSO without the drug was added to the sample. In parallel, noninduced samples (in the absence of IPTG) were also prepared and used as controls of the non-amyloid presence. In addition, the absorbance at 600 nm of the samples was checked to assess the potential intrinsic toxicity of the compounds and to confirm the correct bacterial growth.
(§2) ThS (T1892) and other chemical reagents were purchased from Sigma (St. Louis, MO). ThS stock solution (25 mM) was prepared in double-distilled water purified through a Milli-Q system (Millipore). For the fluorescence assay, the ThS spectra were measured on an AMINCO-Bowman series 2 luminescence spectrophotometer (Aminco-Bowman AB2, SLM Aminco, Rochester, NY) from 460 to 600 nm at 25 °C using an excitation wavelength of 440 nm and slit widths of 4 nm. The emission at 485 nm (fluorescence peak of ThS in the presence of amyloids) was recorded. To normalize the ThS fluorescence as a function of the bacterial concentration, ABS600nm was obtained using a Shimadzu UV-2401 PC UV–Vis spectrophotometer (Shimadzu, Japan). Note that the fluorescence normalization was carried out considering as 100% the ThS fluorescence of the bacterial cells expressing the peptide or protein in the absence of the drug and 0% the ThS fluorescence of the bacterial cells nonexpressing the peptide or protein.

Tau protein = target: T2, Tau protein (Homo sapiens, UniProt P10636); test: Inhibition of Tau aggregation in intact E. coli cells overexpressing Tau (ThS fluorescence); type: cell-based, Escherichia coli; conditions: read-out: % inhibition Tau aggregation @ 10 μM, intact E. coli cells, compound 10 μM, mean ± SEM of four independent experiments
T2 construct: expressed in transfected cells; host or cells: Escherichia coli BL21 (DE3) with pTARA and pRKT42
Excerpt: as §1
E. coli BL21 (DE3) competent cells were transformed with pTARA containing the RNA-polymerase gen of the T7 phage (T7RP) under the control of the promoter PBAD. E. coli BL21 (DE3) with pTARA competent cells were transformed with the pRKT42 vector encoding four repeats of Tau protein in two inserts. For overnight culture preparation, 10 mL of M9 medium containing 0.5% of glucose, 100 μg·mL^–1 ampicillin, and 12.5 μg·mL^–1 chloramphenicol were inoculated with a colony of BL21 (DE3) bearing the plasmids to be expressed at 37 °C. For expression of Tau protein, the required volume of overnight culture to obtain 1:500 dilution was added to fresh M9 minimal medium containing 0.5% of glucose, 50 μg·mL^–1 ampicillin, 12.5 μg·mL^–1 chloramphenicol, and 25 μM ThS. The bacterial culture was grown at 37 °C and 250 rpm. When the cell density reached ABS600 nm= 0.6, an amount of 980 μL of culture was transferred into Eppendorf tubes of 1.5 mL with 10 μL of each compound to be tested in DMSO and 10 μL of arabinose at 25%. The final concentration of the drug was fixed at 10 μM. The samples were grown overnight at 37 °C and 1400 rpm using a thermomixer (Eppendorf, Hamburg, Germany). As the control of maximal amyloid presence, the same amount of DMSO without the drug was added to the sample. In parallel, noninduced samples (in the absence of arabinose) were also prepared and used as controls for the amyloid absence. In addition, the absorbance at 600 nm of the samples was checked to assess the potential intrinsic toxicity of the compounds and to confirm the correct bacterial growth.
as §2

PAMPA-BBB assay = test: PAMPA-BBB assay
Excerpt: Thus, to reduce attrition in the development process, the evaluation of BBB penetration at a very early drug discovery stage is of crucial importance. In light of this, the ability of the previously selected compounds to cross the BBB was predicted by a parallel artificial membrane permeability assay (PAMPA)-BBB,[41] a high-throughput technique widely used as an indicator of a molecule’s passive diffusion through the BBB. Six commercially available drugs were used to validate the assay.
PAMPA (the parallel artificial membrane permeability assay) is a high-throughput screening tool applicable for the prediction of the passive transport of potential drugs across the BBB.[41] In this study, it has been used as a non-cell-based in vitro assay carried out in a coated 96-well membrane filter. The filter membrane of the donor plate was coated with PBL (Polar Brain Lipid, Avanti) in dodecane (4 μL of 20 mg/mL PBL in dodecane) and the acceptor well was filled with 300 μL of phosphate buffer saline, (PBS pH 7.4; VA). The tested compounds were dissolved first in DMSO and then diluted with PBS pH 7.4 to reach the final concentrations of 50–500 μM in the donor well. […] Then, 300 μL of the donor solution (VD) was added to the donor wells and the donor filter plate was carefully put on the acceptor plate so that the coated membrane was “in touch” with both donor solution and acceptor buffer. In principle, the test compound diffuses from the donor well through the polar brain lipid membrane (area = 0.28 cm^2) to the acceptor well. The concentrations of the tested compound in both donor and the acceptor wells were assessed after 3, 4, 5, and 6 h of incubation in quadruplicate using a UV plate reader, Synergy HT (Biotek) at the maximum absorption wavelength of each compound (n=3). In addition to that, solution of the theoretical compound concentration, simulating the equilibrium state established if the membrane were ideally permeable, was prepared and assessed as well. The concentrations of the compounds in the donor and acceptor wells and the equilibrium concentration were calculated from the standard curve and expressed as the permeability (Pe) according to the equation[41] [drawing 1] where [drawing 2]

physchem = conditions: phosphate buffer (Tau(306-336) aggregation assay conditions), pH 7.4, aqueous buffer
Experimental: (§3) * The results are the mean of at least two independent measurements each performed in duplicate.
1 Compounds were measured at 50 μM.

[1] = system: Arctic Aβ42 Drosophila flies; test: Climbing assay in Arctic Aβ42 Drosophila flies
Experimental: Thus, we performed behavioral tests to assess the climbing abilities of Aβ42Drosophila flies with and without treatment with 22 (20 μM), 23 (20 μM), and doxycycline (50 μM), compared to control flies.
(§4) The transactivating protein GAL4 is placed under the control of a specific promoter, with its own spatial and temporal patterns, in this case, Elav, whereas the upstream activation sequence (UAS) localized upstream, the locus controlled by the UAS-Gal4; in our study, UAS expresses construct for the E22G variant of Aβ42 (Arctic Aβ42) (AlzArc2).[56],[64] Around 150 flies (half female/male) for each compound tested were collected and divided into groups of 25 flies. At the top of the media, 25 μL of doxycycline (50 μM), 22 (20 μM), or 23 (20 μM) were added fresh anytime the flies were flipped.
Briefly, males and females 25 per vial were kept at 25 °C. The climbing test was performed on days 7, 14, and 21 after birth. […] The protocol was repeated 10 times at 5-min intervals.

[2] = system: Arctic Aβ42 Drosophila flies; test: Lifespan analysis in Arctic Aβ42 Drosophila flies; conditions: 20 μM in fly food; days 5, 10, 20 post-eclosion
Experimental: As longevity is a phenotype that can be rapidly measured in this in vivo AD model, we first assessed changes in Drosophila’s lifespan with and without treatment with 22 and 23 (20 μM). […] Doxycycline was tested at 50 μM, a concentration used in similar previous experiments.[59]
as §4
Briefly, males and females 25 per vial were kept at 25 °C.

[3] = Solubility in the in vitro aggregation assay conditions
Experimental: as §3
1 Compounds were measured at 50 μM.

[4] = system: cerebellar granule neurons (CGNs); test: Neurotoxicity on primary cultures of cerebellar granule neurons (nuclei counting after Hoechst staining); conditions: differentiated CGNs, 24 h, percentage of healthy nuclei on total nuclei, mean ± SEM of three experiments
Tau(306-336) peptide = target: T3, Tau(306-336) peptide (Homo sapiens, UniProt P10636); test: Inhibition of Tau(306-336) peptide aggregation (ThT fluorimetric assay); type: biochemical; conditions: Tau(306-336) 50 μM, compound 50 μM, phosphate buffer pH 7.4, read-out: Inhibition of Tau(306-336) peptide self-aggregation (%) ± SEM
T3 construct: 1 mg of Tau(306-336) (Bachem AG, Germany) was dissolved; purchased Bachem AG, Germany
Experimental: Secondly, we investigated the ability of the compounds to interfere with Tau aggregation, using the third repeat domain Tau fragment (Tau(306-336) peptide).[44] The aggregation profiles of the Tau(306–336) peptide (50 μM) in the absence and presence of equimolar concentrations of either 22 or 23 were monitored in phosphate buffer 50 mM, pH 7.4, using Thioflavin T (ThT) as the detection dye.
Briefly, 1 mg of Tau(306-336) (Bachem AG, Germany) was dissolved in 1,1,1,3,3,3,-hexafluoro-2-propanol (HFIP), gently vortexed, sonicated, and kept overnight at room temperature. Subsequently, the sample was aliquoted, dried, and stored at −20 °C. Stock solutions of Tau(306-336) peptide (500 μM) were prepared in ultrapure water and immediately used. […] Tau(306-336) aggregation was monitored at 30 °C in a black, clear bottom 96-well plate (Greiner) by the EnSpire multiplate reader (Perkin Elmer) using the ThT fluorimetric assay[14] with some variations. […] Fluorescence data were recorded every 10 min overnight with 1 min shaking at 800 rpm prior to each reading. […] Inhibition % is expressed as the mean ± SEM. Quenching of ThT fluorescence was evaluated by preparing blank solutions containing the inhibitor/reference compound and preformed fibrils of Tau(306–336) peptide.

T3 sequence (P10636 623-653 limits assumed): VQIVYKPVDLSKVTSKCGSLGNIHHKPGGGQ
T1 sequence (P05067 672-713 limits assumed): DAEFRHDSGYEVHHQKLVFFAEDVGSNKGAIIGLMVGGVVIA
T2 sequence (P10636 1-441 isoform P10636-8): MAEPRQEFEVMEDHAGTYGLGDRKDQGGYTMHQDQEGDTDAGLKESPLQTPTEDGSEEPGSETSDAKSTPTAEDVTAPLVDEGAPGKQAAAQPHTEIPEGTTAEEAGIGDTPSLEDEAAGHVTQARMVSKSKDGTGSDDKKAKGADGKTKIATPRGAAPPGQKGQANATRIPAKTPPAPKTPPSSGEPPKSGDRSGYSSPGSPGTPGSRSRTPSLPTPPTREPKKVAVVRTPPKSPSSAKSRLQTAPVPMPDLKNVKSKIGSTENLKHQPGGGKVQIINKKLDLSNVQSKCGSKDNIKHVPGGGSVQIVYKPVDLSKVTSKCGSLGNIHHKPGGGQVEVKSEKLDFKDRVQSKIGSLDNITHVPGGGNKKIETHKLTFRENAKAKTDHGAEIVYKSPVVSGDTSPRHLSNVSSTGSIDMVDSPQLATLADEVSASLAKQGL

| SMILES | inhibition at 10 µM (Aβ42) | inhibition at 10 µM (Tau protein) | Papp (PAMPA-BBB assay; PAMPA, pH 7.4) | BBB permeability prediction (PAMPA-BBB assay; PAMPA-BBB) | CNS (+/-) (PAMPA-BBB assay; PAMPA-BBB penetration estimation) | solubility (physchem) | climbing abilities of Aβ42 Drosophila flies on day 21 ([1]; 20 μM in fly food) | climbing abilities of Aβ42 Drosophila flies ([1]; 20 μM in fly food, days 7, 14, 21 post-eclosion) | lifespan of Aβ42 Drosophila flies [2] | solubility in Tau(306-336) aggregation assay conditions ([3]; 50 μM, phosphate buffer 50 mM pH 7.4, NS = not soluble in the assay conditions) | solubility in Aβ42 ThT-based assay condition ([3]; dedicated solubility assays) | % survival neurotoxicity @ 10 μM [4] | inhibition at 50 µM (Tau(306-336) peptide) | climbing abilities of Aβ42 Drosophila flies on day 21 ([1]; 50 μM in fly food) |
| --- | --- | --- | --- | --- | --- | --- | --- | --- | --- | --- | --- | --- | --- | --- |
| CN(C)CCN1C(=O)S/C(=C\c2ccc3[nH]c4ccc(/C=C5\SC(=O)N(CCN(C)C)C5=O)cc4c3c2)C1=O [Compound 22, (5Z,5′Z)-5,5′-((9H-Carbazole-3,6-diyl)bis(methanylylidene))bis(3-(2-(dimethylamino)ethyl)thiazolidine-2,4-dione)] | 74 ± 4.3% | 66.1 ± 3.9% | 5.3 ± 1.17 ×10⁻⁶ cm/s | predicted to passively diffuse across the BBB | CNS + (CNS + (high BBB permeation predicted): Pe (×10-6 cm s-1) > 4.0) | < 50 µM | good climbing performances | greatly improving the climbing performances | increase in longevity | solubility issues | too limited to grant trustable results | 94.3 ± 1.8% | – | – |
| C[C@H]1c2cccc(O)c2C(=O)C2=C(O)[C@]3(O)C(=O)C(C(N)=O)=C(O)[C@@H](N(C)C)[C@@H]3[C@@H](O)[C@@H]21 [Doxycycline, doxycycline, reference compound] | – | – | – | – | – | – | – | – | – | – | – | – | 61.5 ± 0.8% | strongly declined |
